Reference: patent publication US12077555B2, “STAT degraders and uses thereof” (Kymera Therapeutics, Inc., priority 2019, dated 2024)

Tests used:
[1] = biological target: T1, STAT3 (Homo sapiens, UniProt P40763); assay: Quantitation of STAT3 degradation in A549 cells by Western blot; type: cell-based; set-up: expressed in transfected cells; host or cells: A549; details: read-out: A549 DC50, 24 hours, tested up to 30 μM or 10 μM
Procedure, shortened: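 A549 cells treated 24 h at 37° C with compound at 30, 10, 3, 1, 0.3 μM or DMSO; RIPA lysates analysed by SDS-PAGE/Western blot for total STAT3, β-actin as loading control, LI-COR fluorescence read-out. DC50 derived by sigmoidal fit of dose-dependent degradation.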

[2] = tested on: SU-DHL-1 tumor cells; assay: Xenograph tumor study, SU-DHL-1; type: in vivo, NOD SCID mice; details: SUDHL-1 xenograph, 2.5-30 mg/kg, 2 days on/5 days off
Protocol: Animals: 50 6-8 week old female NOD SCID mice weighing 18 to 20 grams. 25 mice were used in each study.
Method for Tumor Inoculation: Each mouse was inoculated subcutaneously with SU-DHL-1 tumor cells (1×107+Matrigel) or SUP-M2 tumor cells (5×106+Matrigel) in 0.1 ml of RPMI1640 medium supplemented with 10% FBS, 100 U/ml penicillin and […] streptomycin for tumor development. Mice were then assigned to groups such that the mean tumor volume was the same for each treatment group and time point. […] Vehicle was 25% HP-β-CD in water adjusted to pH 7.4.
Measurement Parameters: Study animals were monitored not only for tumor growth but also behavior such as mobility, food and water consumption (by cage side checking only), body weight (BW), eye/hair matting and any other abnormal effect. Any mortality and/or abnormal clinical signs was recorded. Sponsor was notified immediately if abnormal clinical signs, or if tolerability issues were observed. Body weights of all animals were measured and recorded twice per week. The measurement of tumor size was conducted twice weekly with a caliper and recorded. The tumor volume (mm3) was estimated using the formula: TV=a×b2/2, where “a” and “b” are long and short diameters of a tumor, respectively.

[3] = biological target: T1, STAT3; assay: STAT3 HiBiT degradation assay in transfected A549 cells; type: cell-based; set-up: expressed in transfected cells; host or cells: A549; details: A549, 24 h; read-out: STAT3 HiBiT A549 degradation 24 h: Average external-Abs DC50
Procedure, shortened: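 Transfected A549 cells (~2000/well) plated 24 h, then treated 24 h at 37 °C, 5% CO2 with a 3-fold, 10-point compound dilution. HiBiT lytic luminescence read after 10 min at room temperature; remaining STAT3 normalized to negative and positive controls, four-parameter fit. DC50 binned A <0.01, B 0.01–0.1, C 0.1–1.0, D >1.0 µM.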

T1 sequence (P40763 whole entry): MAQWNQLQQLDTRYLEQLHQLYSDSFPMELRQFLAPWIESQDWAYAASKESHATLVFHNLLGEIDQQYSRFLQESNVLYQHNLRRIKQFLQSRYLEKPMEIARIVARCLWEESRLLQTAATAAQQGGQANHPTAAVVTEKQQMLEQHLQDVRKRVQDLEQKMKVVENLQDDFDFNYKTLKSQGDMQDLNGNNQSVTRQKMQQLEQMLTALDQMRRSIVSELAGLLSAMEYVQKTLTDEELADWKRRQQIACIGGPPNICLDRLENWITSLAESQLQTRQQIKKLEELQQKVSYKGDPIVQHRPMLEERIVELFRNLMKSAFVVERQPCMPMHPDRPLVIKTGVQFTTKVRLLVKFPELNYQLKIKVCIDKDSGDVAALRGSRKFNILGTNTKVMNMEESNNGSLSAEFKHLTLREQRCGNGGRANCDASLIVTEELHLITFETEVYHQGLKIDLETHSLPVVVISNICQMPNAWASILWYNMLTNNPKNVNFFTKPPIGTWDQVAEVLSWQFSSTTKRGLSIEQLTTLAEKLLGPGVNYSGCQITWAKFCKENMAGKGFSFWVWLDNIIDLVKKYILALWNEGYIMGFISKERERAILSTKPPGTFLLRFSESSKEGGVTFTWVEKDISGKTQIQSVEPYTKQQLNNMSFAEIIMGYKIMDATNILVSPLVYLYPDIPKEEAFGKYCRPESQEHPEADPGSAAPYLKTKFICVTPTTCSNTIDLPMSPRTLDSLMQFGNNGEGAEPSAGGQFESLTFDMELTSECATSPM

## C/C(=C\C(=O)N[C@H]1CN(C(=O)CCCCCC#Cc2cccc3c2CN(C2CCC(=O)NC2=O)C3=O)CC[C@H]2CC[C@@H](C(=O)N[C@@H](CCC(N)=O)C(=O)NC(c3ccccc3)c3ccccc3)N2C1=O)c1ccc(C(F)(F)P(=O)(O)O)cc1 (stereo partly drawn) [Compound I-115, ((4-((E)-4-(((5S,8S,10aR)-8-(((S)-5-amino-1-(benzhydrylamino)-1,5-dioxopentan-2-yl)carbamoyl)-3-(8-(2-(2,6-dioxopiperidin-3-yl)-1-oxoisoindolin-4-yl)oct-7-ynoyl)-6-oxodecahydropyrrolo[1,2-a][1,5]diazocin-5-yl)amino)-4-oxobut-2-en-2-yl)phenyl)difluoromethyl)phosphonic acid]
[1]
  DC50: < 30000 nM

## Cc1ncsc1-c1ccc(CNC(=O)[C@@H]2C[C@@H](O)CN2C(=O)[C@@H](NC(=O)CCCCCc2ccc(CO[C@H](C)[C@H](CCC(N)=O)NC(=O)[C@@H]3Cc4cccc5c4N3C(=O)[C@@H](NC(=O)c3cc4cc(C(=O)P(=O)(O)O)ccc4[nH]3)CC5)cc2)C(C)(C)C)cc1 [Compound I-117, (2-(((3S,6S)-6-(((2R,3S)-6-amino-2-((4-(6-(((S)-1-((2S,4R)-4-hydroxy-2-((4-(4-methylthiazol-5-yl)benzyl)carbamoyl)pyrrolidin-1-yl)-3,3-dimethyl-1-oxobutan-2-yl)amino)-6-oxohexyl)benzyl)oxy)-6-oxohexan-3-yl)carbamoyl)-4-oxo-1,2,3,4,6,7-hexahydroazepino[3,2,1-hi]indol-3-yl)carbamoyl)-1H-indole-5-carbonyl)phosphonic acid]
[1]
  DC50: < 30000 nM

## C[C@@H](OCc1ccc(CCCCCCc2ccc3c(c2)n(C)c(=O)n3C2CCC(=O)NC2=O)cc1)[C@H](CCC(N)=O)NC(=O)[C@@H]1Cc2cccc3c2N1C(=O)[C@@H](NC(=O)c1cc2cc(C(=O)P(=O)(O)O)ccc2[nH]1)CC3 (stereo partly drawn) [Compound I-118, diammonium 2-[[(2S,11S)-2-[[(3S,4R)-1-carbamoyl-4-[(4-[6-[1-(2,6-dioxopiperidin-3-yl)-3-methyl-2-oxo-1,3-benzodiazol-5-yl]hexyl]phenyl)methoxy]pentan-3-yl]carbamoyl]-12-oxo-1-azatricyclo[6.4.1.0^[4,13]]trideca-4(13),5,7-trien-11-yl]carbamoyl]-1H-indole-5-carbonylphosphonate]
[1]
  DC50: > 30000 nM

## Cn1c(=O)n(C2CCC(=O)NC2=O)c2ccc(C[C@H]3CC[C@@H](CC(=O)N4CC[C@H]5CC[C@@H](C(=O)N[C@@H](CCC(N)=O)C(=O)NCc6ccc(S(C)(=O)=O)cc6)N5C(=O)[C@@H](NC(=O)c5cc6cc(C(=O)P(=O)(O)O)ccc6[nH]5)C4)CC3)cc21 (stereo partly drawn) [Compound I-195, 2-[[(5S,8S,10aR)-8-[[(1S)-3-carbamoyl-1-[[(4-methanesulfonylphenyl)methyl]carbamoyl]propyl]carbamoyl]-6-oxo-3-[2-[(1S,4S)-4-[[1-(2,6-dioxopiperidin-3-yl)-3-methyl-2-oxo-1,3-benzodiazol-5-yl]methyl]cyclohexyl]acetyl]-octahydropyrrolo[1,2-a][1,5]diazocin-5-yl]carbamoyl]-1H-indole-5-carbonylphosphonic acid]
[2]; IP
  tumor volume, 5 days: A (A<500 mm^3)
  tumor volume, 10 days: A (A<500 mm^3)
  tumor volume, 15 days: A (A<500 mm^3)
  tumor volume, 20 days: A (A<500 mm^3)
[3]
  DC50: 10 to 100 nM

## CC(C)c1ccc(CNC(=O)[C@H](CCC(N)=O)NC(=O)[C@@H]2CC[C@@H]3CCN(C(=O)C[C@H]4CC[C@@H](Cc5ccc6c(c5)n(C)c(=O)n6C5CCC(=O)NC5=O)CC4)C[C@H](NC(=O)c4cc5cc(C(=O)P(=O)(O)O)ccc5[nH]4)C(=O)N32)cc1 (stereo partly drawn) [Compound I-196, 2-[[(5S,8S,10aR)-8-[[(1S)-3-carbamoyl-1-[[(4-isopropylphenyl)methyl]carbamoyl]propyl]carbamoyl]-6-oxo-3-[2-[(1S,4S)-4-[[1-(2,6-dioxopiperidin-3-yl)-3-methyl-2-oxo-1,3-benzodiazol-5-yl]methyl]cyclohexyl]acetyl]-octahydropyrrolo[1,2-a][1,5]diazocin-5-yl]carbamoyl]-1H-indole-5-carbonylphosphonic acid]
[2]; IP
  tumor volume, 5 days: A (A<500 mm^3)
  tumor volume, 10 days: A (A<500 mm^3)
  tumor volume, 15 days: A (A<500 mm^3)
  tumor volume, 20 days: A (A<500 mm^3)
[3]
  DC50: 10 to 100 nM

## CC(=O)N1CC[C@H]2CC[C@@H](C(=O)N[C@@H](CCC(N)=O)COc3cccc(CCCCC(=O)N[C@H](C(=O)N4C[C@H](O)C[C@H]4C(=O)N[C@@H](C)c4ccc(-c5scnc5C)cc4)C(C)(C)C)c3Cl)N2C(=O)[C@@H](NC(=O)c2cc3cc(C(=O)P(=O)(O)O)ccc3[nH]2)C1 [Compound I-233, diammonium 2-[[(5S,8S,10aR)-3-acetyl-8-[[(2S)-4-carbamoyl-1-[2-chloro-3-(4-[[(2S)-1-[(2S,4R)-4-hydroxy-2-[[(1S)-1-[4-(4-methyl-1,3-thiazol-5-yl)phenyl]ethyl]carbamoyl]pyrrolidin-1-yl]-3,3-dimethyl-1-oxobutan-2-yl]carbamoyl]butyl)phenoxy]butan-2-yl]carbamoyl]-6-oxo-octahydropyrrolo[l,2-a][1,5]diazocin-5-yl]carbamoyl]-1H-indole-5-carbonylphosphonate]
[2]; IV
  tumor volume, 5 days: A (A<500 mm^3)
  tumor volume, 10 days: A (A<500 mm^3)
  tumor volume, 15 days: A (A<500 mm^3)
  tumor volume, 20 days: A (A<500 mm^3)
[3]
  DC50: < 10 nM

## CC(=O)N1CC[C@H]2CC[C@@H](C(=O)N[C@@H](CCC(N)=O)COc3cccc(CCCC(=O)N[C@H](C(=O)N4C[C@H](O)C[C@H]4C(=O)N[C@@H](C)c4ccc(-c5scnc5C)cc4)C(C)(C)C)c3Cl)N2C(=O)[C@@H](NC(=O)c2cc3cc(C(=O)P(=O)(O)O)ccc3[nH]2)C1 [Compound I-241, diammonium 2-[[(5S,8S,10aR)-3-acetyl-8-[[(2S)-4-carbamoyl-1-[2-chloro-3-(3-[[(2S)-1-[(2S,4R)-4-hydroxy-2-[[(1S)-1-[4-(4-methyl-1,3-thiazol-5-yl)phenyl]ethyl]carbamoyl]pyrrolidin-1-yl]-3,3-dimethyl-1-oxobutan-2-yl]carbamoyl]propyl)henoxy]butan-2-yl]carbamoyl]-6-oxo-octahydropyrrolo[1,2-a][1,5]diazocin-5-yl]carbamoyl]-1H-indole-5-carbonylphosphonate]
[2]; IV
  tumor volume, 5 days: A (A<500 mm^3)
  tumor volume, 10 days: A (A<500 mm^3)
  tumor volume, 15 days: A (A<500 mm^3)
  tumor volume, 20 days: A (A<500 mm^3)
[3]
  DC50: < 10 nM

## Cc1ncsc1-c1ccc([C@H](C)NC(=O)[C@@H]2C[C@@H](O)CN2C(=O)[C@@H](NC(=O)CCCc2cccc(OC[C@H](CCC(N)=O)NC(=O)[C@@H]3Cc4cccc5c4N3C(=O)[C@@H](NC(=O)c3cc4cc(C(=O)P(=O)(O)O)ccc4[nH]3)CC5)c2F)C(C)(C)C)cc1 [Compound I-261, 2-[[(2S,11S)-2-[[(2S)-4-carbamoyl-1-[2-fluoro-3-(3-[[(2S)-1-[(2S,4R)-4-hydroxy-2-[[(1S)-1-[4-(4-methyl-1,3-thiazol-5-yl)phenyl]ethyl]carbamoyl]pyrrolidin-1-yl]-3,3-dimethyl-1-oxobutan-2-yl]carbamoyl]propyl)phenoxy]butan-2-yl]carbamoyl]-12-oxo-1-azatricyclo[6.4.1.0^[4,13]]trideca-4(13),5,7-trien-11-yl]carbamoyl]-1H-indole-5-carbonylphosphonic acid]
[2]; IP
  tumor volume, 5 days: A (A<500 mm^3)
  tumor volume, 10 days: A (A<500 mm^3)
  tumor volume, 15 days: A (A<500 mm^3)
  tumor volume, 20 days: A (A<500 mm^3)
[3]
  DC50: < 10 nM
